Laboratory results taken from patent publication US11541029B2, “High penetration compositions and their applications” (Techfields Pharma Co., Ltd., priority 2008, dated 2023).

What was measured:
SLAC/MRL/LPR mice = assay: Lupus in MRL/LPR mice treated from 8 weeks old, 30 mg/kg (10% aq.) on back skin twice per day; assay type: in vivo
Description: . Progression of lupus was monitored once a week by measurement of hematuria, body weight and survival rate. The experiments were carried out in two groups of mice. One group of mice were 8 weeks old and had not shown SLE characteristics (Table 26a). The other group of mice were 16 weeks old, and had shown SLE characteristics (Table 26b).

[1] = system: Human colon cancer cells (LS174J); assay: Human colon cancer xenograft in nude mice
Description: Human colon cancer cells (LS174J, 2-3 mm^3 of tumor tissue was used in each mouse) were subcutaneously xenografted into nude mice (BALB).

[2] = system: carotid artery thrombosis; assay: Thrombosis/stroke induced by electrical stimulation of carotid artery; assay type: in vivo, rats (Spragu Dawley)
Description: Thrombosis was induced by electrical stimulation (1 mA for 3 minutes) of the carotid artery in rats by using a thrombosis formation instrument (YLS-14A, Shandong Academy of Medical Sciences, Shandong, China). […] In group B, 100 mg/kg of diethylaminoethyl acetylsalicylate.HCl salt (10% in water) was applied to the shaved back skin of the rats (˜9 cm^2, fur was cut off) 2 hour before the operation and 1 hour after the operation, then 50 mg/kg of the HPC was applied to the back of the rats twice per day. In group C, 50 mg/kg of diethylaminoethyl acetylsalicylate.HCl was applied to the back of the rats twice per day starting from 24 hours after the operation. The recovery of motor functions of rats was evaluated every day.

[3] = system: diseases and insects of rice; assay: Antiviral, anti-fungus, anti-insect activity in rice; assay type: in vivo
[4] = group B: 100 mg/kg 2 hour before and 1 hour after operation, then 50 mg/kg twice per day
[5] = group C: 50 mg/kg twice per day starting 24 hours after the operation

SMILES: CCN(CC)CCOC(=O)c1ccccc1OC(C)=O.Cl [P-1, diethylaminoethyl acetylsalicylate.HCl salt]
- Body Weight (SLAC/MRL/LPR mice; week 8): 30.5 ± 2.6 g
- Hematuria (0-4) (SLAC/MRL/LPR mice; week 8): 0
- Survival Rate (SLAC/MRL/LPR mice; week 8): 10/10
- Body Weight (SLAC/MRL/LPR mice; week 9): 33.5 ± 2.1 g
- Hematuria (0-4) (SLAC/MRL/LPR mice; week 9): 0
- Survival Rate (SLAC/MRL/LPR mice; week 9): 10/10
- Body Weight (SLAC/MRL/LPR mice; week 10): 36.2 ± 2.7 g
- Hematuria (0-4) (SLAC/MRL/LPR mice; week 10): 0
- Survival Rate (SLAC/MRL/LPR mice; week 10): 10/10
- Body Weight (SLAC/MRL/LPR mice; week 11): 39.9 ± 2.1 g
- Hematuria (0-4) (SLAC/MRL/LPR mice; week 11): 0
- Survival Rate (SLAC/MRL/LPR mice; week 11): 10/10
- Body Weight (SLAC/MRL/LPR mice; week 12): 42.7 ± 2.3 g
- Hematuria (0-4) (SLAC/MRL/LPR mice; week 12): 0
- Survival Rate (SLAC/MRL/LPR mice; week 12): 10/10
- Body Weight (SLAC/MRL/LPR mice; week 13): 44.7 ± 2.4 g
- Hematuria (0-4) (SLAC/MRL/LPR mice; week 13): 0
- Survival Rate (SLAC/MRL/LPR mice; week 13): 10/10
- Body Weight (SLAC/MRL/LPR mice; week 14): 47.1 ± 1.8 g
- Hematuria (0-4) (SLAC/MRL/LPR mice; week 14): 0
- Survival Rate (SLAC/MRL/LPR mice; week 14): 10/10
- Body Weight (SLAC/MRL/LPR mice; week 15): 48.9 ± 2.6 g
- Hematuria (0-4) (SLAC/MRL/LPR mice; week 15): 0
- Survival Rate (SLAC/MRL/LPR mice; week 15): 10/10
- Body Weight (SLAC/MRL/LPR mice; week 16): 49.6 ± 2.1 g
- Hematuria (0-4) (SLAC/MRL/LPR mice; week 16): 0
- Survival Rate (SLAC/MRL/LPR mice; week 16): 10/10
- Body Weight (SLAC/MRL/LPR mice; week 17): 50.2 ± 2.5 g
- Hematuria (0-4) (SLAC/MRL/LPR mice; week 17): 0
- Survival Rate (SLAC/MRL/LPR mice; week 17): 10/10
- Body Weight (SLAC/MRL/LPR mice; week 18): 50.6 ± 2.4 g
- Hematuria (0-4) (SLAC/MRL/LPR mice; week 18): 0
- Survival Rate (SLAC/MRL/LPR mice; week 18): 10/10
- Body Weight (SLAC/MRL/LPR mice; week 19): 50.9 ± 2.3 g
- Hematuria (0-4) (SLAC/MRL/LPR mice; week 19): 0
- Survival Rate (SLAC/MRL/LPR mice; week 19): 10/10
- Body Weight (SLAC/MRL/LPR mice; week 20): 51.1 ± 2.0 g
- Hematuria (0-4) (SLAC/MRL/LPR mice; week 20): 0
- Survival Rate (SLAC/MRL/LPR mice; week 20): 10/10
- Body Weight (SLAC/MRL/LPR mice; week 21): 50.9 ± 2.3 g
- Hematuria (0-4) (SLAC/MRL/LPR mice; week 21): 0
- Survival Rate (SLAC/MRL/LPR mice; week 21): 10/10
- Body Weight (SLAC/MRL/LPR mice; week 22): 50.4 ± 2.2 g
- Hematuria (0-4) (SLAC/MRL/LPR mice; week 22): 0
- Survival Rate (SLAC/MRL/LPR mice; week 22): 10/10
- Body Weight (SLAC/MRL/LPR mice; week 23): 50.9 ± 2.1 g
- Hematuria (0-4) (SLAC/MRL/LPR mice; week 23): 0
- Survival Rate (SLAC/MRL/LPR mice; week 23): 10/10
- Body Weight (SLAC/MRL/LPR mice; week 24): 51.2 ± 2.5 g
- Hematuria (0-4) (SLAC/MRL/LPR mice; week 24): 0
- Survival Rate (SLAC/MRL/LPR mice; week 24): 10/10
- Body Weight (SLAC/MRL/LPR mice; week 25): 50.8 ± 2.2 g
- Hematuria (0-4) (SLAC/MRL/LPR mice; week 25): 0
- Survival Rate (SLAC/MRL/LPR mice; week 25): 10/10
- Body Weight (SLAC/MRL/LPR mice; week 26): 50.7 ± 2.6 g
- Hematuria (0-4) (SLAC/MRL/LPR mice; week 26): 0
- Survival Rate (SLAC/MRL/LPR mice; week 26): 10/10
- Body Weight (SLAC/MRL/LPR mice; week 27): 50.3 ± 2.1 g
- Hematuria (0-4) (SLAC/MRL/LPR mice; week 27): 0
- Survival Rate (SLAC/MRL/LPR mice; week 27): 10/10
- Body Weight (SLAC/MRL/LPR mice; week 28): 50.6 ± 2.0 g
- Hematuria (0-4) (SLAC/MRL/LPR mice; week 28): 0
- Survival Rate (SLAC/MRL/LPR mice; week 28): 10/10
- Body Weight (SLAC/MRL/LPR mice; week 29): 50.1 ± 2.0 g
- Hematuria (0-4) (SLAC/MRL/LPR mice; week 29): 0
- Survival Rate (SLAC/MRL/LPR mice; week 29): 10/10
- Body Weight (SLAC/MRL/LPR mice; week 30): 49.8 ± 2.1 g
- Hematuria (0-4) (SLAC/MRL/LPR mice; week 30): 0
- Survival Rate (SLAC/MRL/LPR mice; week 30): 10/10
- Body Weight (SLAC/MRL/LPR mice; week 31): 50.4 ± 1.9 g
- Hematuria (0-4) (SLAC/MRL/LPR mice; week 31): 0
- Survival Rate (SLAC/MRL/LPR mice; week 31): 10/10
- Body Weight (SLAC/MRL/LPR mice; week 32): 50.8 ± 2.0 g
- Hematuria (0-4) (SLAC/MRL/LPR mice; week 32): 0
- Survival Rate (SLAC/MRL/LPR mice; week 32): 10/10
- Body Weight (SLAC/MRL/LPR mice; week 33): 50.6 ± 2.1 g
- Hematuria (0-4) (SLAC/MRL/LPR mice; week 33): 0
- Survival Rate (SLAC/MRL/LPR mice; week 33): 10/10
- Body Weight (SLAC/MRL/LPR mice; week 34): 50.8 ± 2.3 g
- Hematuria (0-4) (SLAC/MRL/LPR mice; week 34): 0
- Survival Rate (SLAC/MRL/LPR mice; week 34): 10/10
- Body Weight (SLAC/MRL/LPR mice; week 35): 50.3 ± 2.4 g
- Hematuria (0-4) (SLAC/MRL/LPR mice; week 35): 0
- Survival Rate (SLAC/MRL/LPR mice; week 35): 10/10
- Body Weight (SLAC/MRL/LPR mice; week 36): 50.7 ± 2.3 g
- Hematuria (0-4) (SLAC/MRL/LPR mice; week 36): 0
- Survival Rate (SLAC/MRL/LPR mice; week 36): 10/10
- Body Weight (SLAC/MRL/LPR mice; week 37): 50.9 ± 2.0 g
- Hematuria (0-4) (SLAC/MRL/LPR mice; week 37): 0
- Survival Rate (SLAC/MRL/LPR mice; week 37): 10/10
- Body Weight (SLAC/MRL/LPR mice; week 38): 51.1 ± 2.6 g
- Hematuria (0-4) (SLAC/MRL/LPR mice; week 38): 0
- Survival Rate (SLAC/MRL/LPR mice; week 38): 10/10
- Body Weight (SLAC/MRL/LPR mice; week 39): 50.6 ± 2.2 g
- Hematuria (0-4) (SLAC/MRL/LPR mice; week 39): 0
- Survival Rate (SLAC/MRL/LPR mice; week 39): 10/10
- Body Weight (SLAC/MRL/LPR mice; week 40): 50.7 ± 2.0 g
- Hematuria (0-4) (SLAC/MRL/LPR mice; week 40): 0
- Survival Rate (SLAC/MRL/LPR mice; week 40): 10/10
- Body Weight (SLAC/MRL/LPR mice; week 41): 51.2 ± 2.1 g
- Hematuria (0-4) (SLAC/MRL/LPR mice; week 41): 0
- Survival Rate (SLAC/MRL/LPR mice; week 41): 10/10
- Body Weight (SLAC/MRL/LPR mice; week 42): 51.1 ± 2.6 g
- Hematuria (0-4) (SLAC/MRL/LPR mice; week 42): 0
- Survival Rate (SLAC/MRL/LPR mice; week 42): 10/10
- Body Weight (SLAC/MRL/LPR mice; week 43): 50.7 ± 2.2 g
- Hematuria (0-4) (SLAC/MRL/LPR mice; week 43): 0
- Survival Rate (SLAC/MRL/LPR mice; week 43): 10/10
- Body Weight (SLAC/MRL/LPR mice; week 44): 50.3 ± 2.6 g
- Hematuria (0-4) (SLAC/MRL/LPR mice; week 44): 0
- Survival Rate (SLAC/MRL/LPR mice; week 44): 10/10
- Body Weight (SLAC/MRL/LPR mice; week 45): 50.7 ± 2.0 g
- Hematuria (0-4) (SLAC/MRL/LPR mice; week 45): 0
- Survival Rate (SLAC/MRL/LPR mice; week 45): 10/10
- Body Weight (SLAC/MRL/LPR mice; week 46): 50.6 ± 2.3 g
- Hematuria (0-4) (SLAC/MRL/LPR mice; week 46): 0
- Survival Rate (SLAC/MRL/LPR mice; week 46): 10/10
- Body Weight (SLAC/MRL/LPR mice; week 47): 50.1 ± 2.0 g
- Hematuria (0-4) (SLAC/MRL/LPR mice; week 47): 0
- Survival Rate (SLAC/MRL/LPR mice; week 47): 10/10
- Body Weight (SLAC/MRL/LPR mice; week 48): 50.3 ± 2.5 g
- Hematuria (0-4) (SLAC/MRL/LPR mice; week 48): 0
- Survival Rate (SLAC/MRL/LPR mice; week 48): 10/10
- Body Weight (SLAC/MRL/LPR mice; week 49): 50.7 ± 2.4 g
- Hematuria (0-4) (SLAC/MRL/LPR mice; week 49): 0
- Survival Rate (SLAC/MRL/LPR mice; week 49): 10/10
- Body Weight (SLAC/MRL/LPR mice; week 50): 51.2 ± 2.1 g
- Hematuria (0-4) (SLAC/MRL/LPR mice; week 50): 0
- Survival Rate (SLAC/MRL/LPR mice; week 50): 10/10
- tumor Size at day 30 ([1]; about 50 μl of 5% topically every 12 hours): 480 ± 130 mm^3
- Weight of mice at day 30 ([1]; in vivo): 23 ± 3
- Stroke-free rats (2 hours) [2, 4]: 8/10
- Stroke-free rats (1 day) [2, 4]: 9/10
- Stroke-free rats (7 days) [2, 4]: 10/10
- Stroke-free rats (3 hrs) [2, 5]: 0/10
- Stroke-free rats (2 day) [2, 5]: 4/10
- Stroke-free rats (7 day) [2, 5]: 9/10
- Stroke-free rats (14 days) [2, 5]: 10/10
- Weight Loss (3 days) [2, 5]: −13 +/− 7%
- Weight Loss (7 days) [2, 5]: −7 +/− 4%
- Weight Loss (14 days) [2, 5]: −4 +/− 2%
- bleeding problem ([2]; post-stroke treatment): without bleeding problem
- Yield of good rice ([3]; 1/2 acre per group, imidacloprid co-applied in group C): 1800 kg
- harvest dates earlier ([3]; group C and D): 5 days
